Measurements published in ChEMBL document CHEMBL1201862, “PubChem BioAssay data set” (2004).
Active and inactive are the calls of the source.

Key:
[1] = molecular target: T1, Voltage-gated N-type calcium channel alpha-1B subunit/Amyloid beta A4 precursor protein-binding family A member 1 (Homo sapiens, UniProt Q00975+Q02410); format: protein assay
NS3 = NS3 (Hepatitis C virus, UniProt A3EZJ3); experiment: PubChem AID 2173; design: species or system Hepacivirus hominis
Estrogen receptor beta = Estrogen receptor beta (Homo sapiens, UniProt Q92731); experiment: ERβ–SRC-3 coactivator interaction inhibitors, confirmation, orthogonal assay, biochemical, ELISA, streptavidin-HRP readout (AID 1060)
[2] = molecular target: T2, Tyrosine-protein phosphatase non-receptor type 7 (Homo sapiens, UniProt P35236); experiment: redox-dependent HePTP inhibition, mechanism study, biochemical, fluorescence (AID 2068); format: functional
T2 sequence (P35236 whole entry): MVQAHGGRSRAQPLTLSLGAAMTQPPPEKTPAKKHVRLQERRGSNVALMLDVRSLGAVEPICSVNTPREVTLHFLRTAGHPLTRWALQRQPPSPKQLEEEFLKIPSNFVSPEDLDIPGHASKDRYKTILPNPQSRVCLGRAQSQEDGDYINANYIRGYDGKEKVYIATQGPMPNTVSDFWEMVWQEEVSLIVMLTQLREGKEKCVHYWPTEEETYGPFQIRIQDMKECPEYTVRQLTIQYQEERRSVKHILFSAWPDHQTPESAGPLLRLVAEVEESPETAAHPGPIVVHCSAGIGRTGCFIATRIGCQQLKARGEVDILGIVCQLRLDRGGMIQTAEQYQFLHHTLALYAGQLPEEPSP

[3] = molecular target: T1, Voltage-gated N-type calcium channel alpha-1B subunit/Amyloid beta A4 precursor protein-binding family A member 1; format: protein assay; remark: listed apart in the source
[4] = molecular target: T1, Voltage-gated N-type calcium channel alpha-1B subunit/Amyloid beta A4 precursor protein-binding family A member 1; experiment: disruptors of Mint-PDZ/N-type channel peptide interaction – biochemical, HTRF, SAR follow-up (AID 2489); format: functional
[5] = molecular target: Cystic fibrosis transmembrane conductance regulator/Golgi-associated PDZ and coiled-coil motif-containing protein (Homo sapiens, UniProt P13569+Q9HD26); experiment: CAL PDZ peptide-binding inhibitors, dose response, biochemical, fluorescence polarization, Cerulean-tagged CAL PDZ, cherry-picks (AID 504773)
Chain of Cystic fibrosis transmembrane conductance regulator/Golgi-associated PDZ and coiled-coil motif-containing protein (P13569 whole entry, other chains not shown): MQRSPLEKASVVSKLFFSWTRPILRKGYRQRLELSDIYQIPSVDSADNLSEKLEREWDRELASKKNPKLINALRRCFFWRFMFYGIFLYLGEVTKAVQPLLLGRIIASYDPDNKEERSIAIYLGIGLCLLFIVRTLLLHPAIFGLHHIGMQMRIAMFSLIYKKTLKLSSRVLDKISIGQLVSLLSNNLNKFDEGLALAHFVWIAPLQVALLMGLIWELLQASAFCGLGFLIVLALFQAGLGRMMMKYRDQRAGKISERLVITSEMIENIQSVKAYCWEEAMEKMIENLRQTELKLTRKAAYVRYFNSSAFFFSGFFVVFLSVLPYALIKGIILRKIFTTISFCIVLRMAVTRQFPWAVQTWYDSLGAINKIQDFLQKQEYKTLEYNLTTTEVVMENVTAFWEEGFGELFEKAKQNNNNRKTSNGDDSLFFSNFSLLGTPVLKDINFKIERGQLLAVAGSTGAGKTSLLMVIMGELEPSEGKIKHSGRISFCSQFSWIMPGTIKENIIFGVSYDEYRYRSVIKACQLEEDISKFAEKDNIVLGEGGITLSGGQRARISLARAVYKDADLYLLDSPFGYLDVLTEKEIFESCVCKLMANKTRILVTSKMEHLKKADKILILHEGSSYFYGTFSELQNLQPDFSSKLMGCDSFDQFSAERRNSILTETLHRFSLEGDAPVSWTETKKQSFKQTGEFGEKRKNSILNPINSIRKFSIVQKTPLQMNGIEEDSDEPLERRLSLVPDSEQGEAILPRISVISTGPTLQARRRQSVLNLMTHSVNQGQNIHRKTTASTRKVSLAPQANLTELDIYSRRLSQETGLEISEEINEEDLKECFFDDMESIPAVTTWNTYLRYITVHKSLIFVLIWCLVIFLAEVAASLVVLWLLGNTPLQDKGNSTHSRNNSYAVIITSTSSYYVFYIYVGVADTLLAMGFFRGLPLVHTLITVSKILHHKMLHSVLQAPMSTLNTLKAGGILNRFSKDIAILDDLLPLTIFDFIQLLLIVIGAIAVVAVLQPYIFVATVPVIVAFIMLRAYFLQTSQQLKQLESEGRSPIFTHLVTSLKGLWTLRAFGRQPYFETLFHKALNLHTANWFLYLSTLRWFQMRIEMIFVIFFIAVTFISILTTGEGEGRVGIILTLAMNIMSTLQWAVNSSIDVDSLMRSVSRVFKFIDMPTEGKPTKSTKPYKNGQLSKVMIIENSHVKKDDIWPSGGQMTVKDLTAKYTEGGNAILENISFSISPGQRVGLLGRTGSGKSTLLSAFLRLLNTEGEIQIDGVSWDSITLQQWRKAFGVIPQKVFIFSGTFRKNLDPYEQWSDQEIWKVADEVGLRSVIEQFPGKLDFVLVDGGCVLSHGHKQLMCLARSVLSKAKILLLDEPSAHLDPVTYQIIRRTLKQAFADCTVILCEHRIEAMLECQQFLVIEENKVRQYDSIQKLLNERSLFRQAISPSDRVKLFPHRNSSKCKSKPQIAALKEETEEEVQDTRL

Integrin alpha-4 = Integrin alpha-4 (Homo sapiens, UniProt P13612); experiment: VLA-4 integrin allosteric ligands, SAR follow-up, cell-based, LIBS antibody binding, flow cytometry (AID 488791); format: functional
[6] = molecular target: NACHT, LRR and PYD domains-containing protein 3 (Homo sapiens, UniProt Q96P20); experiment: NALP3 inhibitors in yeast, dose response, luminescent (AID 488799); format: functional
H4 = experiment: Luminescence Cell-Based Dose Response HTS to Identify Activators of 5'UTR Stem-Loop Driven Prion Protein mRNA Translation in H4 Neuroglioblastoma Cells. [Related pubchem assays: 1829 (Project Summary), 1814 (Primary HTS)]; format: functional; settings: Homo sapiens
[7] = Luminescence Cell-Based Dose Response HTS to Identify Activators of 5'UTR Stem-Loop Driven Prion Protein mRNA Translation in H4-C Neuroglioblastoma Cells. [Related pubchem assays: 1829 (Project Summary), 1814 (Primary HTS)]; format: functional
[8] = Luminescence Cell-Based Dose Response HTS to Identify Activators of Luciferase Translation or Activity in H4 […] Cells. [Related pubchem assays: 1829 (Project Summary), 1814 (Primary HTS)]; format: functional
[9] = Luminescence Cell-Based Dose Retest to Confirm Activators of 5'UTR Stem-Loop Driven Alpha-Synuclein mRNA Translation in H4 Neuroglioblastoma Cells. [Related pubchem assays (depositor defined):AID1813, AID1829]; format: functional
[10] = Luminescence Cell-Based Dose Response HTS to Identify Activators of Luciferase Translation or Activity in H4-C Neuroglioblastoma Cells. [Related pubchem assays: 1829 (Project Summary), 1814 (Primary HTS)]; format: functional
[11] = Luminescence Cell-Based Dose Confirmation HTS to Identify Activators of 5'UTR Stem-Loop Driven Alpha-Synuclein mRNA Translation in H4 Neuroglioblastoma Cells. [Related pubchem assays: 1829 (Project Summary), 1814 (Primary HTS)]; format: functional
[12] = molecular target: T3, Mannose-6-phosphate isomerase (Homo sapiens, UniProt P34949); experiment: Confirmation of compounds inhibiting phosphomannose isomerase (PMI) via a fluorescence intensity assay using a high concentration of mannose 6-phosphate. [Related pubchem assays (depositor defined):AID1209, AID1220, AID1545, AID1553, AID1620]
T3 sequence (P34949 whole entry): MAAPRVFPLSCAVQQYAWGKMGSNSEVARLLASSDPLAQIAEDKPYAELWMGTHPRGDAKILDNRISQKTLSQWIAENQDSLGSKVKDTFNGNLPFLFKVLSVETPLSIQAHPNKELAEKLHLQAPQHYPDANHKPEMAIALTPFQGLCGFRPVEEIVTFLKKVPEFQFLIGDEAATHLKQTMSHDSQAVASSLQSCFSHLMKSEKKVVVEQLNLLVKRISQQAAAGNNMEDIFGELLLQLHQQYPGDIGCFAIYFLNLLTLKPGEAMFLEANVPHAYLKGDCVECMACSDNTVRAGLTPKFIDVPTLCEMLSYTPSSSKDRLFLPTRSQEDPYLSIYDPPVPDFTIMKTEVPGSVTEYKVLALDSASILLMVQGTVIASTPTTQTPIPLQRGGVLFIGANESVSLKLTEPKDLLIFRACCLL

[13] = molecular target: T3, Mannose-6-phosphate isomerase; experiment: PMI enzyme inhibitors, confirmation, biochemical, fluorescence intensity (AID 1535)
Phosphomannomutase 2 = Phosphomannomutase 2 (Homo sapiens, UniProt O15305); experiment: Counter screen SAR assay for PMM2 inhibitors via a fluorescence intensity assay. [Related pubchem assays (depositor defined):AID1545, AID1574]
Troponin, cardiac muscle = Troponin, cardiac muscle (Homo sapiens, UniProt P19429+P45379+P63316); experiment: Fluorescence-based biochemical high throughput dose response assay for activators of the calcium sensitivity of cardiac Regulated Thin Filaments (RTF). [Related pubchem assays (depositor defined):AID493008, AID493018, AID504382, AID504383]; format: protein-complex assay
[14] = molecular target: G-protein coupled receptor 35 (Homo sapiens, UniProt Q9HC97); experiment: GPR35 antagonists blocking zaprinast-driven arrestin recruitment, primary screen, imaging, U2OS, beta-arrestin-GFP, zaprinast agonist (AID 2058); format: functional;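 further: antagonist potency meaning inhibition of agonist-induced arrestin redistribution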
Chain of G-protein coupled receptor 35 (Q9HC97 whole entry): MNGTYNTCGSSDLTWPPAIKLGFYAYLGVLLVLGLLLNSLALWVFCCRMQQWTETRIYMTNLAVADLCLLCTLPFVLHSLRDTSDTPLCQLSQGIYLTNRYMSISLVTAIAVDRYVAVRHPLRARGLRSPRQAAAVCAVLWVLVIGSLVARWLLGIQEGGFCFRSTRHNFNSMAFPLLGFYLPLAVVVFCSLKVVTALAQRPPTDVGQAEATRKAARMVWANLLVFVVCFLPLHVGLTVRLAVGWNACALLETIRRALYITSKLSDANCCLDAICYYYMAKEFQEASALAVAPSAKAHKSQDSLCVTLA

T1 sequence (Q00975 whole entry): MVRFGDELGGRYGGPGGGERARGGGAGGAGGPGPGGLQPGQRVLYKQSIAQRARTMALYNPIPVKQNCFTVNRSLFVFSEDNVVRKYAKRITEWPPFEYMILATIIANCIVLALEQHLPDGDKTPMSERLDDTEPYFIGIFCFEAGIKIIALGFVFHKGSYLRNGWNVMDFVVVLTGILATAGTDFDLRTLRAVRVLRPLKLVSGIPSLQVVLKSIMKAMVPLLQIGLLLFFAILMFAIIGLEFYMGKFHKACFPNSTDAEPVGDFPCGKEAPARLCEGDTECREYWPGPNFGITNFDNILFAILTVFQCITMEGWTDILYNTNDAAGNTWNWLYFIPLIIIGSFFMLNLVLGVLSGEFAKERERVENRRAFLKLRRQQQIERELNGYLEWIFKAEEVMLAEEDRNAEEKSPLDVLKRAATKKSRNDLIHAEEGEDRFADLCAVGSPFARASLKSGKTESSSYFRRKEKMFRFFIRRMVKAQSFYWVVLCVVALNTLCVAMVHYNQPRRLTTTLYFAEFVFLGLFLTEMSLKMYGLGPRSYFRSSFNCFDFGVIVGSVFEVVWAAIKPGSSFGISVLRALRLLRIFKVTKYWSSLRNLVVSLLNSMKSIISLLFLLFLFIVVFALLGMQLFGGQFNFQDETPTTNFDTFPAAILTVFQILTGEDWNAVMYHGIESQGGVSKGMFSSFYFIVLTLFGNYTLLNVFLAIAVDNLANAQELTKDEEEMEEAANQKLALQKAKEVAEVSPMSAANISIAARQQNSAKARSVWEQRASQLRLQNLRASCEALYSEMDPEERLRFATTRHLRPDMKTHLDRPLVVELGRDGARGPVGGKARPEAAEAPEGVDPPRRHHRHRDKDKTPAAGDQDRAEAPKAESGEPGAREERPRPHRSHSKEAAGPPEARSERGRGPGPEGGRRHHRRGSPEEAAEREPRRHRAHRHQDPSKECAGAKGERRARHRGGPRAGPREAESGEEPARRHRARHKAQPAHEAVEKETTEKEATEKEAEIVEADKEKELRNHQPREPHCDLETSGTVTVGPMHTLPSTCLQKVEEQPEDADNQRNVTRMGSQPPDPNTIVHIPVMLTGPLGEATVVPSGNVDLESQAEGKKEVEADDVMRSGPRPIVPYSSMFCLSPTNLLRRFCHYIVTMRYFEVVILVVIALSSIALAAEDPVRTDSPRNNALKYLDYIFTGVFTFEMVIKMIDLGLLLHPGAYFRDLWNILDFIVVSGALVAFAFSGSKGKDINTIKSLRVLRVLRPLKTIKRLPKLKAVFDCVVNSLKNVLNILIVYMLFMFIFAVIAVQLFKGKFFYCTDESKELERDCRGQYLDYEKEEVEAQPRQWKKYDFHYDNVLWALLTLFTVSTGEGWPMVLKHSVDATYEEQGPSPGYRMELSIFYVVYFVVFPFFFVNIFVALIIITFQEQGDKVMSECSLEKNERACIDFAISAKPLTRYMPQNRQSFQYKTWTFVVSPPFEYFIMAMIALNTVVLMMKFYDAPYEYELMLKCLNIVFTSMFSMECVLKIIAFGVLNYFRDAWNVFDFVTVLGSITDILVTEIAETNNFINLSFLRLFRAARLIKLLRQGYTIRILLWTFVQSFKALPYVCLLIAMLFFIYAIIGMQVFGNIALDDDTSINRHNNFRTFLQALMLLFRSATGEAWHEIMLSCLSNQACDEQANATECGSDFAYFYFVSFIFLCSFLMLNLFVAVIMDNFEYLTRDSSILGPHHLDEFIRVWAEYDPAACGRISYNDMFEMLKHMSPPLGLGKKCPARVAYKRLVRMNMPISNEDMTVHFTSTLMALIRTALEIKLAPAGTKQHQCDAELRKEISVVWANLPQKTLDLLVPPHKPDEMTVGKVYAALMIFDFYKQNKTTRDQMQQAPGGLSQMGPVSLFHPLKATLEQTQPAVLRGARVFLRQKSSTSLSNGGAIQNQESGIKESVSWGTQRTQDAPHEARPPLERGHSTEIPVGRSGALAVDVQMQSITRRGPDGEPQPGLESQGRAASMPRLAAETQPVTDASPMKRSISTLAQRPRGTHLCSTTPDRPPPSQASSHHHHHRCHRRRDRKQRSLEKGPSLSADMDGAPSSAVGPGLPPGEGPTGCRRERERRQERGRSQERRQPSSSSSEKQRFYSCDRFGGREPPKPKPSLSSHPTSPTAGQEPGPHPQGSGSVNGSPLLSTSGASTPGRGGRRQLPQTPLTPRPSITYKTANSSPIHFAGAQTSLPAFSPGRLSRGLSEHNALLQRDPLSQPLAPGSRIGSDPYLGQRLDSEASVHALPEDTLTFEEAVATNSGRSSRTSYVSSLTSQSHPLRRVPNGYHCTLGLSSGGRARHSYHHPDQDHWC
T1 sequence (Q02410 whole entry): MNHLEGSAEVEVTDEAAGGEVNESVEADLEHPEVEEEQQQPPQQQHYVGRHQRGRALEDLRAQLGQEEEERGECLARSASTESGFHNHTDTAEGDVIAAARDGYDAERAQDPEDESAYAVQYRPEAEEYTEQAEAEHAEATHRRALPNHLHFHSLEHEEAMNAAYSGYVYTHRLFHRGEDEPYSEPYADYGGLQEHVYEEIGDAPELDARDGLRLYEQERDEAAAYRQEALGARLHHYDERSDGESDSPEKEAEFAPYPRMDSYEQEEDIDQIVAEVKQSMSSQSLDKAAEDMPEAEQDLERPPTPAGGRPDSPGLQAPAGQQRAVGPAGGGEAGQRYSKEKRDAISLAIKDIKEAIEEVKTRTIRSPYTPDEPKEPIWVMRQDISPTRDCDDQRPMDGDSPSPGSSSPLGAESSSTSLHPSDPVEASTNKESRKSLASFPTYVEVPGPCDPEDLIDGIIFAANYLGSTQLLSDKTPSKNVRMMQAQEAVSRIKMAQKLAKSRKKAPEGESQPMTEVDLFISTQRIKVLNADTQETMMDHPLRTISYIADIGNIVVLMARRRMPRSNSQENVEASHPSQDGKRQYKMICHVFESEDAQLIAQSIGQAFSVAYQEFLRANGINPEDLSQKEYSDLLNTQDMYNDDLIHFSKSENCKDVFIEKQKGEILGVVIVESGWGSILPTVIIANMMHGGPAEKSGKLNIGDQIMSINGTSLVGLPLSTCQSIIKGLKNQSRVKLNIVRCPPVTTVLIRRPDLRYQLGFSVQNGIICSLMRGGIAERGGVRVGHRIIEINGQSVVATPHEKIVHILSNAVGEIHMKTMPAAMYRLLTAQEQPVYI

In the case of `O=C(NC1CCCC1)c1ccc2nc(-c3ccco3)c(-c3ccco3)nc2c1`, the IC50 [1] was 2.28 µM (active), the IC50 (NS3) was 5.49 µM (active) and the IC50 (Estrogen receptor beta) was 0.478 µM (not active). The IC50 [2] was 2.94 µM (active), the IC50 [3] was 26 µM (active) and the IC50 [4] was > 56.8 µM (inactive).

With `O=C(c1ccccc1)C(c1ccccc1)c1ccccc1` the AC50 [5] was > 56 µM (inactive).

With `COC(=O)C1OC2(OC1C(=O)OC)c1ccccc1-c1ccccc12` (stereo not given) the EC50 (Integrin alpha-4) was 7.14 µM (active).

In the case of `COc1cc(CNCCc2ccccc2)ccc1OCc1ccc(Cl)nc1`, the IC50 [6] was 30.1 µM (active).

For `O=C1Nc2ccccc2S/C1=C\C(=O)N1CCCC1`, the EC50 (H4) was > 120 µM (not active), the EC50 [7] was 9.5 µM (active) and the EC50 [8] was 8.16 µM (active). The EC50 [9] was > 195 µM (inactive), the EC50 [10] was 13.2 µM (active) and the EC50 [11] was 0.264 µM (active).

With `O=c1c2ccc(O)cc2sn1C1CCCC1` the IC50 [12] was > 100 µM (inactive), the IC50 [13] was > 100 µM (inactive) and the IC50 (Phosphomannomutase 2) was > 100 µM (inactive).

With `O=[N+]([O-])c1ccc(/C=C/C2=NN(c3ccccc3)C(c3ccco3)C2)cc1` (stereo not given) the EC50 (Troponin, cardiac muscle) was 0.397 µM (active).

For `C=CCCCCCCCCc1nnc(SCC(=O)O)[nH]1`, the IC50 [14] was 0.553 µM (active).
